In PubChem BioAssay (NCI):
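Each compound was tested at five concentrations against cells in 96-well plates for 48 hours. GI50 marks 50% less growth. TGI: concentration producing complete growth inhibition.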

How the values were obtained:
Test in all cases: NCI-60 cell line screen, 48 h
HL-60(TB) leukemia = system: HL-60(TB) leukemia
HOP-62 NSCLC = system: HOP-62 NSCLC
HS 578T breast = system: HS 578T breast
KM12 colon = system: KM12 colon
MALME-3M melanoma = system: MALME-3M melanoma
MDA-MB-231 breast = system: MDA-MB-231 breast
NCI-H522 lung = system: NCI-H522 lung
RXF 393 renal = system: RXF 393 renal
SK-MEL-28 melanoma = system: SK-MEL-28 melanoma
SN12C renal = system: SN12C renal

SMILES | GI50 (HL-60(TB) leukemia) [µM] | TGI (HL-60(TB) leukemia) [µM] | GI50 (HOP-62 NSCLC) [µM] | TGI (HOP-62 NSCLC) [µM] | GI50 (HS 578T breast) [µM] | TGI (HS 578T breast) [µM] | GI50 (KM12 colon) [µM] | TGI (KM12 colon) [µM] | GI50 (MALME-3M melanoma) [µM] | TGI (MALME-3M melanoma) [µM] | GI50 (MDA-MB-231 breast) [µM] | TGI (MDA-MB-231 breast) [µM] | GI50 (NCI-H522 lung) [µM] | TGI (NCI-H522 lung) [µM] | GI50 (RXF 393 renal) [µM] | TGI (RXF 393 renal) [µM] | GI50 (SK-MEL-28 melanoma) [µM] | TGI (SK-MEL-28 melanoma) [µM] | GI50 (SN12C renal) [µM] | TGI (SN12C renal) [µM]
C/C(=N/Nc1nc2ccccc2n1C)c1ccccn1 | 0.0177 | 0.391 | 0.185 | 4.49 | 0.287 | 25.6 | 0.202 | 20.7 | 0.148 | 16.7 | 0.0561 | 15.3 | 0.223 | 9.34 | 0.169 | 3.24 | 0.256 | 29.1 | 0.106 | 23
O=C1NC(O)C(c2c[nH]c3ccccc23)=C1c1c[nH]c2ccccc12 (stereo not given) | > 25 | > 25 | > 25 | > 25 | 25 | > 25 | > 25 | > 25 | > 25 | > 25 | > 16.5 | > 25 | > 25 | > 25 | > 25 | > 25 | > 25 | > 25 | > 25 | > 25
O=C(CN1CCN(CCCOc2c(-c3ccccc3)oc3ccccc3c2=O)CC1)Nc1ccc(Cl)cc1C(=O)c1ccccc1Cl | > 100 | > 100 | 10.4 | 28.1 | 8.45 | 60.8 | 5.73 | 29.9 | 4 | 8.91 | 4.26 | 19.3 | 16.6 | 57.2 | 2.57 | 8.79 | 3.66 | 15.2 | 4.98 | 18
COc1ccc2c(=O)c3ccoc3n(CC=C(C)C)c2c1 |  | > 96.6 |  | > 100 |  | > 100 |  | > 100 |  | 18.7 |  | > 100 |  | > 33.2 |  | > 81.1 |  | > 100 |  | > 100
CC(C)[C@H](CO)Nc1nc(Nc2ccc(C(=O)NCCNS(=O)(=O)c3cccc4c(N(C)C)cccc34)c(Cl)c2)c2ncn(C(C)C)c2n1 | 2.65 | 7.43 | 3.69 | > 100 | 2.08 | > 100 | 0.447 | 2.72 | > 25.5 | > 100 | 1.58 | 9.16 | 2.19 | 6.1 | 0.381 | 1.78 | 2.9 | > 100 | 2.81 | > 100
COC(=O)c1c2c(c(C)[n+]([O-])c1C)C(=O)C=C(NCc1ccc(F)c(Cl)c1)C2=O | 0.27 | 0.895 | 0.718 | 2.33 | 1.62 | 6.48 | 0.0515 | 1.58 | 0.149 | 0.332 | 0.269 | 3.42 | 0.266 | 1.7 | 1.13 | 2.46 | 0.411 | 2.15 | 0.31 | 1.28
O=C1CCCCCCCC/C=C\CC(c2ccco2)O1 (stereo not given) | 12 | 31 | 15.6 | 62.3 | 32.4 | > 100 | 28.5 | > 100 | 26.3 | > 100 | 14.6 | 41.9 | 18.1 | 47.2 | 21.5 | 65.2 | 31.1 | > 100 | 22.2 | 69.9
C=CC(=O)N1CCN(c2nc(=O)n(-c3c(C)ccnc3C(C)C)c3nc(-c4c(O)cccc4F)c(F)cc23)[C@@H](C)C1 | 20.5 | 53.8 | < 0.0291 | > 66.5 | 45.7 | > 100 | 23.4 | 54 | 20.8 | 64 | 25.4 | 85.2 | 29.8 | > 100 | 17.7 | 59.2 | > 58.7 | > 100 | 38 | > 100
COc1ccc(-n2nnnc2-c2c[nH]c3c(F)cc(F)cc23)cc1 | > 100 | > 100 | 37.5 | > 100 | > 100 | > 100 | > 100 | > 100 | > 100 | > 100 | 27.1 | > 100 | 86 | > 100 | 16.2 | 45.4 | > 100 | > 100 | 86.3 | > 100
O=C(/C=C/c1cccnc1)NCCCCC1CCCN(C(=O)c2ccccc2)C1 (stereo not given) | 44.7 | > 100 | > 94.2 | > 100 | 4.45 | > 100 | < 0.0357 | > 100 | > 44.5 | > 100 | > 100 | > 100 | < 0.01 | > 100 | > 100 | > 100 | > 100 | > 100 | < 0.01 | > 100
COc1cc(C)c(Cl)cc1C1=NN(c2ccc(S(N)(=O)=O)cc2)C(/C=C/c2ccccc2)C1 (stereo not given) | 3.6 | 16 | 3.1 | 11.8 | 2.89 | 9.83 | 3.4 | 14.8 | 2.68 | 9.98 | 3.3 | 10.8 | 2.3 | 5.34 | 1.71 | 3.5 | 3.1 | 11.4 | 2.68 | 7.03
CCCc1cc2c(=O)c(C(=O)OC)c[nH]c2cc1N(CC)CC | 62.5 | > 100 | 20.4 | 37.9 | 19.6 | 48.1 | 45.5 | > 100 | 64.8 | > 100 | 30.5 | 84.5 | 38.5 | > 100 | 31.4 | 85 | 81.7 | > 100 | 41.2 | > 100
